According to patent US20250188110A1, “SPECIFIC SMALL MOLECULE INHIBITORS THAT BLOCK KMT9 METHYLTRANSFERASE ACTIVITY AND FUNCTION” (ALBERT-LUDWIGS-UNIVERSITÄT FREIBURG, priority 2021, published 2025):

Tests used:
KMT9 [1] = molecular target: T1, KMT9 (Homo sapiens, UniProt Q9Y5N5); assay: KMT9 methyltransferase inhibition assay, 3H-SAM scintillation (entries 1-154); type: biochemical; conditions: entries 1-154: 3H-SAM assay, 25 nM KMT9, 5 μM ETF1
T1 sequence (Q9Y5N5 1-214): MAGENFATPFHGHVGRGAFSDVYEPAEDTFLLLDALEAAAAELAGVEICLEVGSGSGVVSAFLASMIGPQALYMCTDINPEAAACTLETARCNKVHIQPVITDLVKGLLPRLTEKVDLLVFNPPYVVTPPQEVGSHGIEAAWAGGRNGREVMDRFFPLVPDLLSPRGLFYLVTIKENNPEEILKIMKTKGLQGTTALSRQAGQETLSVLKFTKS
T1 sequence (Q9UI30 1-120 isoform Q9UI30-2 partner): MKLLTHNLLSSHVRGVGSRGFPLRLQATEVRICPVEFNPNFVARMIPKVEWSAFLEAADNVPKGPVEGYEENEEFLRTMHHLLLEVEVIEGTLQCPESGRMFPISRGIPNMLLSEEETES
How it was run: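 Tritium transfer from SAM (0.3 μM 3H-SAM, 0.7 μM unlabelled, final) to 5 μM ETF1 fragment by 25 nM KMT9 was measured after 2 h at 30° C, pH 8.5. Precipitated peptide was collected on filters and scintillation counted; IC50 came from a four-parameter fit of inhibition normalised to controls.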

KMT9 [2] = molecular target: T1, KMT9; assay: Microscale thermophoresis (MST) KMT9 binding; conditions: microscale thermophoresis, His-tag labelled KMT9 (20 nM); read-out: MST
How it was run: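 Kd from microscale thermophoresis: compound series against 20 nM His-KMT9 labelled via RED-Tris-NTA, buffer 25 mM HEPES (pH 7.5)/100 mM NaCl/1 mM DTT/0.05% Tween, 40% MST power, 100% LED. Reported as classes: A ≤10 nM, B >10–100 nM, C >100–1000 nM, D >1000 nM.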

KMT9 [3] = molecular target: T1, KMT9; assay: KMT9 thermal shift assay (SyproOrange); type: binding; conditions: ΔTm; 500 µM compound, 2 μM KMT9, 5X SO; read-out: Thermal shift
How it was run: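 ΔTm versus DMSO-only control is reported in bins (>20 K, 15–20 K, 10–15 K, ≤10 K), using Tm from Boltzmann sigmoidal fits of SyproOrange melt curves. KMT9 with compound in pH 8.5 BTP buffer containing MgCl2 and DTT was preincubated at 25° C, then ramped 1° C per 15 s up to 95° C.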

| Structure (SMILES) | IC50 (KMT9 [1]) [nM] | Kd (KMT9 [2]) [nM] | ΔTm at 500 µM (KMT9 [3]) [°C] |
| --- | --- | --- | --- |
| Nc1ncnc2c1ncn2[C@@H]1O[C@H](C(=O)NCCCNCCc2ccccc2)[C@@H](O)[C@H]1O [301 (198), (2S,3S,4R,5R)-5-(6-amino-9H-purin-9-yl)-3,4-dihydroxy-N-(3-(phenethylamino)propyl) tetrahydrofuran-2-carboxamide] | > 10000 | 100 to 1000 | ≤ 10 |
| CNc1ncnc2c1ccn2[C@@H]1C[C@H](CN(CCCNCCc2cccc(Oc3ccccc3)c2)NC)[C@@H](O)[C@H]1O [367 (271), (1S,2R,3R,5R)-3-((2-methyl-1-(3-((3-phenoxyphenethyl)amino)propyl) hydrazineyl)methyl)-5-(4-(methylamino)-7H-pyrrolo[2,3-d]pyrimidin-7-yl) cyclopentane-1,2-diol] | > 10000 | > 1000 | ≤ 10 |
| CNc1ncnc2c1ccn2[C@@H]1C[C@H](CNCCCNCCc2cccc(N(C)c3ccccc3)c2)[C@@H](O)[C@H]1O [289 (186), (1S,2R,3R,5R)-3-(((3-((3-(methyl(phenyl)amino)phenethyl)amino)propyl)amino)methyl)-5-(4-(methylamino)-7H-pyrrolo[2,3-d]pyrimidin-7-yl) cyclopentane-1,2-diol] | > 10000 | > 1000 | 10 to 15 |
| CNc1ncnc2c1ccn2[C@@H]1C[C@H](C(=O)NCC2CCNCC2)[C@@H](O)[C@H]1O [346 (250), (1S,2R,3S,4R)-2,3-dihydroxy-4-(4-(methylamino)-7H-pyrrolo[2,3-d]pyrimidin-7-yl)-N-(piperidin-4-ylmethyl) cyclopentane-1-carboxamide] | > 10000 | > 1000 | ≤ 10 |
| CNc1ncnc2c1ccn2[C@@H]1C[C@H](CNCCCNCCc2cccc(Sc3ccccc3)c2)[C@@H](O)[C@H]1O [372 (276), (1R,2S,3R,5R)-3-(4-(methylamino)-7H-pyrrolo[2,3-a]pyrimidin-7-yl)-5-(((3-((3-(phenylthio)phenethyl)amino)propyl)amino)methyl) cyclopentane-1,2-diol] | 1000 to 10000 | 100 to 1000 | 10 to 15 |
| Nc1ncnc2c1c(-c1ccccc1)cn2[C@@H]1C[C@H](CNCCCNCCc2cccc(Oc3ccccc3)c2)[C@@H](O)[C@H]1O [461 (334), (1R,2S,3R,5R)-3-(4-Amino-5-phenyl-7H-pyrrolo[2,3-d]pyrimidin-7-yl)-5-(((3-((3-phenoxyphenethyl)amino)propyl)amino)methyl) cyclopentane-1,2-diol] | 100 to 1000 | 100 to 1000 | 15 to 20 |
| CNc1ncnc2c1ccn2[C@@H]1C[C@H](CCCCNCCc2ccccc2)[C@@H](O)[C@H]1O [423 (294), (1R,2S,3R,5S)-3-(4-(methylamino)-7H-pyrrolo[2,3-d]pyrimidin-7-yl)-5-(4-(phenethylamino)butyl) cyclopentane-1,2-diol] | > 10000 | > 1000 | ≤ 10 |
| CNc1ncnc2c1ccn2[C@@H]1C[C@H](CN(CCCNCCc2ccccc2)c2cnn(C)c2)[C@@H](O)[C@H]1O [441 (313), (1S,2R,3R,5R)-3-(((1-Methyl-1H-pyrazol-4-yl)(3-(phenethylamino)propyl)amino)methyl)-5-(4-(methylamino)-7H-pyrrolo[2,3-d]pyrimidin-7-yl) cyclopentane-1,2-diol] | > 10000 | > 1000 | ≤ 10 |
| CNc1ncnc2c1ccn2[C@@H]1C[C@H](C#CCNCCc2ccccc2)[C@@H](O)[C@H]1O [426 (297), (1R,2S,3R,5R)-3-[4-(methylamino)pyrrolo[2,3-d]pyrimidin-7-yl]-5-{3-[(2-phenylethyl)amino]prop-1-yn-1-yl}cyclopentane-1,2-diol] | > 10000 | > 1000 | ≤ 10 |
| CNc1ncnc2c1ccn2[C@@H]1C[C@H](CN(CCCNCCc2ccccc2)CC(F)(F)F)[C@@H](O)[C@H]1O [330 (234), (1R,2S,3R,5R)-3-(4-(methylamino)-7H-pyrrolo[2,3-d]pyrimidin-7-yl)-5-(((3-(phenethylamino)propyl)(2,2,2-trifluoroethyl)amino)methyl) cyclopentane-1,2-diol] | > 10000 | 100 to 1000 | ≤ 10 |

The next lines start with the values.

| IC50 (KMT9 [1]) [nM] | Kd (KMT9 [2]) [nM] | ΔTm at 500 µM (KMT9 [3]) [°C] | Structure (SMILES) |
| --- | --- | --- | --- |
| 1000 to 10000 | 10 to 100 | 15 to 20 | CCc1cn([C@@H]2C[C@H](CNCCCNCCc3cccc(Oc4ccccc4)c3)[C@@H](O)[C@H]2O)c2ncnc(N)c12 [459 (332), (1R,2S,3R,5R)-3-(4-Amino-5-ethyl-7H-pyrrolo[2,3-d]pyrimidin-7-yl)-5-(((3-((3-phenoxyphenethyl)amino)propyl)amino)methyl) cyclopentane-1,2-diol] |
| 100 to 1000 | 10 to 100 | 15 to 20 | Nc1ncnc2c1c(Br)cn2[C@@H]1C[C@H](CNCCCNCCc2cccc(F)c2)[C@@H](O)[C@H]1O [317 (218), (1R,2S,3R,5R)-3-(4-amino-5-bromo-7H-pyrrolo[2,3-d]pyrimidin-7-yl)-5-(((3-((3-fluorophenethyl)amino)propyl)amino)methyl) cyclopentane-1,2-diol] |
| 100 to 1000 | 100 to 1000 | 15 to 20 | Nc1ncnc2c1c(Br)cn2[C@@H]1C[C@H](CNCCCNCc2ccc(F)cc2)[C@@H](O)[C@H]1O [344 (248), (1R,2s,3R,5R)-3-(4-amino-5-bromo-7H-pyrrolo[2,3-d]pyrimidin-7-yl)-5-(((3-((4-fluorobenzyl)amino)propyl)amino)methyl) cyclopentane-1,2-diol] |
| 100 to 1000 | 10 to 100 | 15 to 20 | Nc1ncnc2c1c(Br)cn2[C@@H]1C[C@H](CNCCCNCCc2ccc(F)cc2F)[C@@H](O)[C@H]1O [334 (238), (1R,2S,3R,5R)-3-(4-amino-5-bromo-7H-pyrrolo[2,3-d]pyrimidin-7-yl)-5-(((3-((2,4-difluorophenethyl)amino)propyl)amino)methyl) cyclopentane-1,2-diol] |
| 1000 to 10000 | 100 to 1000 | 10 to 15 | Cc1cn([C@@H]2C[C@H](CNCCCNCCc3ccccc3)[C@@H](O)[C@H]2O)c2ncnc(N)c12 [467 (341), (1R,2S,3R,5R)-3-(4-Amino-5-methyl-7H-pyrrolo[2,3-d]pyrimidin-7-yl)-5-(((3-(phenethylamino)propyl)amino)methyl) cyclopentane-1,2-diol] |
| > 10000 | > 1000 | 10 to 15 | Nc1ncnc2c1c(Br)cn2[C@@H]1C[C@H](CNC[C@H]2CCCNC2)[C@@H](O)[C@H]1O [455 (327), (1R,2S,3R,5R)-3-(4-Amino-5-bromo-7H-pyrrolo[2,3-d]pyrimidin-7-yl)-5-(((((S)-piperidin-3-yl)methyl)amino)methyl)cyclopentane-1,2-diol] |
| 1000 to 10000 | 10 to 100 | 10 to 15 | C=Cc1cn([C@@H]2C[C@H](CNCCCNCCc3ccccc3)[C@@H](O)[C@H]2O)c2ncnc(N)c12 [464 (338), (1R,2S,3R,5R)-3-(4-amino-5-vinyl-7H-pyrrolo[2,3-d]pyrimidin-7-yl)-5-(((3-(phenethylamino)propyl)amino)methyl) cyclopentane-1,2-diol] |
| 100 to 1000 | 10 to 100 | 15 to 20 | Nc1ncnc2c1c(Br)cn2[C@@H]1C[C@H](C(=O)NCCCNCCc2ccccc2)[C@@H](O)[C@H]1O [452 (324), (1S,2R,3S,4R)-4-(4-Amino-5-bromo-7H-pyrrolo[2,3-d]pyrimidin-7-yl)-2,3-dihydroxy-N-(3-(phenethylamino)propyl) cyclopentane-1-carboxamide] |
